Our source for the Ki values is patent US20150175655A1 (priority 2012, published 2015).

Each structure is given as a SMILES string.

The first test concerns the target T1, NS3 genotype 3a protease (UniProt Q81258).
T1 construct: Purified NS3 protease domain (amino acids 1-181) of the genotype 1b and 3a virus were generated as above; fused on or other part: N-terminal hexahistidine tag and rTEV protease cleavage site (vector p28-N6H-Tev-NS3(181)3)
T1 sequence (Q81258 1033-1663): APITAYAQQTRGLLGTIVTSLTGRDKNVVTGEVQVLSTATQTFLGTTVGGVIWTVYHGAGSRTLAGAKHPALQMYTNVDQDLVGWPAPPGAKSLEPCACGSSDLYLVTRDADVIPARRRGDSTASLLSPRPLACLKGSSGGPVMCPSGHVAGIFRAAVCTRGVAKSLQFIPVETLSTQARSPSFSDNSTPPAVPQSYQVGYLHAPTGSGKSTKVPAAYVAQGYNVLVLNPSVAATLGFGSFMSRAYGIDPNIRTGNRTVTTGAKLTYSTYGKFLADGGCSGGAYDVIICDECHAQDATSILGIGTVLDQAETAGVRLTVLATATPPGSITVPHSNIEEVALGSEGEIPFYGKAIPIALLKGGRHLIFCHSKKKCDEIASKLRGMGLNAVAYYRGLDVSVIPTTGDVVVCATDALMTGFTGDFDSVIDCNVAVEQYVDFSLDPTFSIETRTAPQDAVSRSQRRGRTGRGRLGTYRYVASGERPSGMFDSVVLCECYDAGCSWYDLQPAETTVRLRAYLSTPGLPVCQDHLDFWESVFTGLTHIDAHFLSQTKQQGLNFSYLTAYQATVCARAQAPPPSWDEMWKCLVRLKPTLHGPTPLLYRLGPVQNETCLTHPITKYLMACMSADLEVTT
The experiment in a line: Ki determination, NS3 protease genotype 3a (fluorogenic depsipeptide substrate). In kind it is biochemical, hepatitis C virus. Particulars: 200 pM enzyme, 20 μM NS4A peptide, 2 μM substrate, read-out: Ki 3A. The method in brief:
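Refolded His-tagged NS3 protease domain (aa 1-181, genotype 3a) at 200 pM with 20 μM NS4A peptide was pre-incubated 1 h at RT with inhibitor (100 nM–5 pM, 3-fold), then 2 μM FRET depsipeptide substrate was added in HEPES/40% glycerol/10% DMSO buffer. Steady-state rates over 90-120 min (ex 340/em 490 nm) versus inhibitor concentration gave Ki.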
Regarding `CC[C@@H]1[C@@H]2CN(C(=O)[C@H](C(C)(C)C)NC(=O)O[C@@H]3C[C@H]3CCCCCc3nc4ccc(OC)cc4nc3O2)[C@@H]1C(=O)N[C@]1(C(=O)NS(=O)(=O)C2(Cl)CC2)C[C@H]1C(F)F` [Example 75, (1aR,5S,8S,9S,10R,22aR)-5-tert-butyl-N-[(1R,2R)-1-{[(1-chlorocyclopropyl)sulfonyl]carbamoyl}-2-(difluoromethyl)cyclopropyl]-9-ethyl-14-methoxy-3,6-dioxo-1,1a,3,4,5,6,9,10,18,19,20,21,22,22a-tetradecahydro-8H-7,10-methanocyclopropa[18,19][1,10,3,6]dioxadiazacyclononadecino[11,12-b]quinoxaline-8-carboxamide], the Ki stood at 120 pM.

As to `COc1ccc2nc3c(nc2c1)O[C@H]1CN(C(=O)[C@H](C(C)(C)C)NC(=O)O[C@@H]2C[C@@H]4C[C@@H]4[C@H]2CCCCC3(F)F)[C@H](C(=O)N[C@]2(C(=O)NS(=O)(=O)C3(C)CC3)C[C@H]2C(F)F)[C@@H]1C` [Example 81, (1aS,2aR,6S,9S,10S,11R,23aR,23bS)-6-tert-butyl-N-[(1R,2R)-2-(difluoromethyl)-1-{[(1-methylcyclopropyl)sulfonyl]carbamoyl}cyclopropyl]-19,19-difluoro-15-methoxy-10-methyl-4,7-dioxo-1a,2,2a,4,5,6,7,10,11,19,20,21,22,23,23a,23b-hexadecahydro-1H,9H-8,11-methanocyclopropa[4′,5′]cyclopenta[1′,2′:18,19][1,10,3,6]dioxadiazacyclononade cino[11,12-b]quinoxaline-9-carboxamide], the Ki stood at 50 pM.

Turning to `C[C@@H]1[C@@H]2CN(C(=O)[C@H](C(C)(C)C)NC(=O)O[C@@H]3C[C@@H]4C[C@@H]4[C@H]3CCCCC(F)(F)c3nc4ccccc4nc3O2)[C@@H]1C(=O)N[C@]1(C(=O)NS(=O)(=O)C2(C)CC2)C[C@H]1C(F)F` [Example 82, (1aS,2aR,6S,9S,10S,11R,23aR,23bS)-6-tert-butyl-N-[(1R,2R)-2-(difluoromethyl)-1-{[(1-methylcyclopropyl)sulfonyl]carbamoyl}cyclopropyl]-19,19-difluoro-10-methyl-4,7-dioxo-1a,2,2a,4,5,6,7,10,11,19,20,21,22,23,23a,23b-hexadecahydro-1H,9H-8,11-methanocyclopropa[4′,5′]cyclopenta[1′,2′:18,19][1,10,3,6]dioxadiazacyclononade cino[11,12-b]quinoxaline-9-carboxamide], the Ki amounted to 40 pM.

`CC[C@@H]1[C@@H]2CN(C(=O)[C@H](C(C)(C)C)NC(=O)O[C@@H]3C[C@H]3CCCCC(F)(F)c3nc4ccc(OC(F)F)cc4nc3O2)[C@@H]1C(=O)N[C@]1(C(=O)NS(=O)(=O)C2(C)CC2)C[C@H]1C(F)F` [Example 85, (1aR,5S,8S,9S,10R,22aR)-5-tert-butyl-14-(difluoromethoxy)-N-[(1R,2R)-2-(difluoromethyl)-1-{[(1-methylcyclopropyl)sulfonyl]carbamoyl}cyclopropyl]-9-ethyl-18,18-difluoro-3,6-dioxo-1,1a,3,4,5,6,9,10,18,19,20,21,22,22a-tetradecahydro-8H-7,10-methanocyclopropa[18,19][1,10,3,6]dioxadiazacyclononadecino[11,12-b]quinoxaline-8-carboxamide]: the Ki amounted to 30 pM.

Take `CC[C@@H]1[C@@H]2CN(C(=O)[C@H](C(C)(C)C)NC(=O)O[C@@H]3C[C@H]3CCCCC(F)(F)c3nc4ccc(C#N)cc4nc3O2)[C@@H]1C(=O)N[C@]1(C(=O)NS(=O)(=O)C2(C)CC2)C[C@H]1C(F)F` [Example 87, (1aR,5S,8S,9S,10R,22aR)-5-tert-butyl-14-cyano-N-[(1R,2R)-2-(difluoromethyl)-1-{[(1-methylcyclopropyl)sulfonyl]carbamoyl}cyclopropyl]-9-ethyl-18,18-difluoro-3,6-dioxo-1,1a,3,4,5,6,9,10,18,19,20,21,22,22a-tetradecahydro-8H-7,10-methanocyclopropa[18,19][1,10,3,6]dioxadiazacyclononadecino[11,12-b]quinoxaline-8-carboxamide]: the Ki was 50 pM.

For `CC[C@@H]1[C@@H]2CN(C(=O)[C@H](C(C)(C)C)NC(=O)O[C@@H]3C[C@H]3CCCCC(F)c3nc4ccc(OC)cc4nc3O2)[C@@H]1C(=O)N[C@]1(C(=O)NS(=O)(=O)C2(C)CC2)C[C@H]1C(F)F` (stereo partly drawn) [Example 90, (1aR,5S,8S,9S,10R,22aR)-5-tert-butyl-N-[(1R,2R)-2-(difluoromethyl)-1-{[(1-methylcyclopropyl)sulfonyl]carbamoyl}cyclopropyl]-9-ethyl-18-fluoro-14-methoxy-3,6-dioxo-1,1a,3,4,5,6,9,10,18,19,20,21,22,22a-tetradecahydro-8H-7,10-methanocyclopropa[18,19][1,10,3,6]dioxadiazacyclononadecino[11,12-b]quinoxaline-8-carboxamide], the Ki was found to be 130 pM.

In another test the target is T2, NS3 genotype 1b protease (Hepatitis C virus genotype 1b, UniProt Q9WMX2, E1202G).
T2 construct: Purified NS3 protease domain (amino acids 1-181) of the genotype 1b and 3a virus were generated as above; K3 hexahistidine tag (N); rTEV protease cleavage site (N); made in house; host or cells: E. coli BL21AI, pET28 vector p28-N6H-Tev-NS3(181)1b
As to the kind of experiment: Ki determination, NS3 protease genotype 1b (fluorogenic depsipeptide substrate).
Conditions: not given
In kind it is biochemical. From the text:
The coding sequence of the genotype 1b (con-1 strain) HCV NS3 protease domain was PCR amplified from a plasmid encoding the I389luc-ubi-neo/NS3-3′/ET replicon (Reblikon, Mainz, Germany). The 5′-PCR primer was designed to encode an N-terminal K3 hexahistidine tag and to insert an in-frame recombinant Tobacco Etch virus (rTEV) protease cleavage site into the NS3 coding sequence. The resulting DNA fragment was cloned into the pET28 protein expression vector (Invitrogen, Carlsbad, Calif.) yielding the p28-N6H-Tev-NS3(181)1b.
BL21AI bacteria (Invitrogen, Carlsbad, Calif.) were transformed with genotype 1b or 3 NS3 expression vectors and used to inoculate a 20 L fermentation vessel (Sartorius BBI System Inc., Bethlehem, Pa.), containing 18 L of fresh 2YT medium supplemented with 50 μg/mL kanamycin. When cell densities reached an OD600 of 1, the temperature of the cultures was reduced from 37° C. to 28° C. and induction was immediately initiated by the addition of 30 μM ZnSO4, 14 mM L-arabinose and 1 mM Isopropyl β-D-thiogalactoside (IPTG) final concentrations. Cells were harvested by centrifugation four hours post-induction and were stored as frozen pellets at −80° C. prior to NS3 protein purification.
Cell pellets were thawed and resuspended at 10 mL/g cells in lysis buffer containing 50 mM tris pH 7.6, 300 mM NaCl, 0.1% 3-[(3-cholamidopropyl)dimethylammonio]-1-propanesulfonate (CHAPS), 5% glycerol, and 2 mM β-mercaptoethanol. Cell suspensions were then sonicated, filtered through cheesecloth, and passed three times through a microfluidizer at 18,000 pounds/in^2. The resulting lysates were centrifuged at 15500 rpm for 45 minutes and supernatants were loaded onto a HisTrap HP column (GE Lifesciences) pre-equilibrated with five volumes of Ni buffer A (50 mM tris pH 7.6, 300 mM NaCl, 0.1% CHAPS, 5% glycerol, 2 mM β-mercaptoethanol, 50 mM imidazole-HCl). Proteins were eluted with a 0-100% gradient of Ni buffer A plus 500 mM imidazole-HCl and fractions were collected and pooled. The HisTrap pool was diluted 1:10 with SP-A buffer (50 mM tris pH 7.0, 10% glycerol, 2 mM dithiothreitol (DTT)) and loaded onto a HiTrap SP-HP column (GE Lifesciences) equilibrated with SP-A buffer. NS3 protease was eluted with a 0-100% SP-B buffer (SP-A buffer plus 1 M NaCl) gradient. Concentrated pools of NS3-containing SP fractions were aliquoted, snap frozen in liquid nitrogen and stored at −80° C.
Purified NS3 protease domain (amino acids 1-181) of the genotype 1b and 3a virus were generated as above.
Reactions were run at room temperature in buffer consisting of 50 mM HEPES, 40% glycerol, 0.05% Triton X-100, 10 mM DTT, and 10% DMSO. The final assay solutions contained 50 pM NS3 genotype 1b protease or 200 pM genotype 3a protease, 20 μM NS4A peptide, and 4 μM substrate (genotype 1 b) or 2 μM substrate (genotype 3a). Inhibitor concentrations varied from 100 nM to 5 pM in 3-fold dilutions, and no-inhibitor controls were included.
Compound dilutions were made in DMSO at 20× final concentration. Reaction mixtures were prepared in 96-well assay plates. A solution of enzyme and NS4A peptide in assay buffer (25 μL volume with both reagents at 4× final concentration) was mixed with 45 μL assay buffer and 5 μL of either inhibitor or DMSO, and pre-incubated at room temperature for 1 hour. The reaction was started by addition of 25 μL substrate solution at 4× final concentration. Plates were mixed vigorously for 5-10 seconds and reactions were allowed to proceed for 90 minutes. fluorescence was measured every 30 s between 90 and 120 minutes reaction time using a Tecan InfiniTe M1000 or PerkinElmer Envision multimode plate reader with an excitation wavelength of 340 nm and an emission wavelength of 490 nm.
To determine the K, rates were plotted as a function of inhibitor concentration, and the data were fit with equation 1 (Morrison, J. F., Biochimica et Biophysica Acta 1969, 185, 269-286) to calculate Ki^app using GraphPad Prism 5.
Compound `COc1ccc2nc3c(nc2c1)O[C@H]1CN(C(=O)[C@H](C(C)(C)C)NC(=O)O[C@]2(C)C[C@H]2CCCCC3(F)F)[C@H](C(=O)N[C@]2(C(=O)NS(=O)(=O)C3(C)CC3)C[C@H]2C(F)F)[C@@H]1C` (single isomer, unassigned) [Example 76] showed a Ki of 30 pM.

`CC[C@@H]1[C@@H]2CN(C(=O)[C@H](C(C)(C)C)NC(=O)O[C@@H]3C[C@H]3CCCCCc3nc4ccc(OC)cc4nc3O2)[C@@H]1C(=O)N[C@]1(C(=O)NS(=O)(=O)C2(C)CC2)C[C@H]1C(F)F` [Example 1, (1aR,5S,8S,9S,10R,22aR)-5-tert-butyl-N-[ (1R,2R)-2-(difluoromethyl)-1-{[(1-methylcyclopropyl)sulfonyl]carbamoyl}cyclopropyl]-9-ethyl-14-methoxy-3,6-dioxo-1,1a,3,4,5,6,9,10,18,19,20,21,22,22a-tetradecahydro-8H-7,10-methanocyclopropa[18,19][1,10,3,6]dioxadiazacyclononadecino[11,12-b]quinoxaline-8-carboxamide] showed a Ki of 30 pM.

Broadly, the Ki is the dissociation constant of the complex between target and ligand, obtained from inhibition or displacement.
